According to patent publication US6069167A, “Use of antioxidant agents to treat cholestatic liver disease” (priority 1997, dated 2000):

What was measured:
[1] = test system: lactate dehydrogenase (LDH); experiment: Interference of TCDC with the LDH assay (total LDH activity of hepatocyte lysate); assay type: cell-based, rat; conditions: 10×10^6 hepatocytes incubated 4 hours with or without TCDC at 1000 μmol/L
Protocol: Adult male Sprague Dawley rats (250-275 grams body weight) were obtained from Sasco, Inc. (Omaha, Nebr.). They were maintained on Purina lab chow (Ralston Purina Co., Chicago, Ill.) for 2-3 weeks and housed in polyethylene cages with stainless steel tops on a […]. All rats received humane care in compliance with the guidelines of the Committee on Laboratory Animal Research of the University of Colorado Health Sciences Center. Hepatocytes were isolated using a collagenase reperfusion technique that was a modification^24 of the method of Berry and Friend^25. After administration of intraperitoneal anesthesia (50 mg/kg body weight), each rat liver was perfused in situ via the portal vein with Krebs-Henseleit buffer containing a mixture of 17 amino acids as previously described^24 under a 9% O2 /5% CO2 /86% N2 atmosphere until perfusate was blood free (after approximately 25-50 ml of perfusate infusion). […] Initial cell viability measured by the trypan blue exclusion method^43 was above 95%. […]
Hepatocyte injury was assessed by the percentage of total cellular lactate dehydrogenase (LDH) release into the buffer medium. LDH was analyzed by measuring the rate of decrease in absorbance at 340 nm during reduction of pyruvate using a diagnostic kit supplied by Sigma Diagnostics (St Louis, Mo.). […]

hepatic toxicity (liver) = experiment: Dose response of intravenous TCDC and hepatic toxicity (serum AST, ALT, bilirubin, alkaline phosphatase); assay type: in vivo, male Sprague-Dawley rats; conditions: for Serum ALT / Serum AST: mean ± SEM, n = 4
From the text: (§1) Young adult male Sprague-Dawley rats (150-180 gram weight) purchased from Sasco, Inc. (Omaha, Nebr.) were fed Purina Lab Chow (Ralston Purina Co., Chicago, Ill.) ad libitum for 2-3 weeks and housed in polyethylene cages with stainless steel tops on a 12-hour light-dark cycle. All rats received humane care in compliance with the guidelines of the Animal Use in Research Committee of the University of Colorado Health Sciences Center. Rats were then randomly assigned (4-5 per group) to receive 0 (vehicle only), 5, 10, or 20 μmol of taurochenodeoxycholic acid (TCDC)/100 gram body weight. TCDC is a conjugate of the bile acid most implicated in cholestatic liver injury9,11,12. TCDC was solubilized in 5% dextrose, 10% BSA, and 0.45% normal saline. TCDC was administered while rats were under light methoxyflurane anesthesia as an intravenous bolus of the desired dose in 1 to 2 minutes through the tail vein. TCDC dosing was performed between 7 and 9 am. Rats recovered from the injection uneventfully and blood was obtained at 0, 4, 8, 12 and 24 hours after the injection for determination of AST, ALT total bilirubin and alkaline phosphatase by an automated chemical analyzer (Hitachi 747 Chemical Analyzer).

[2] = Serum bile acid concentrations four hours after intravenous TCDC by GC-MS; assay type: in vivo, male Sprague-Dawley rats
From the text: as §1
Because serum AST and ALT concentrations peaked at 4 hours, further evaluation of liver injury was performed at that time point Total concentrations (conjugated+free bile acids) of individual bile acids were measured in serum obtained at 4 hours by gas chromatography-mass spectroscopy (GC-MS), as previously described^30. Briefly, after serum samples were extracted with the addition of the internal standard 7-alpha, 12-alpha, dihydroxy-5 beta cholanic acid, trimethylsilyl esterification was performed. Individual bile acids were then quantified by GC or GC-MS using a Hewlett-Packard 5790 flame ionization detector equipped with a 30 meter DB-1 capillary column with internal diameter of 0.25 mm and a film thickness of 0.25 micrometers (J & W Scientific, Folsom, Calif.). For GC-MS measurements, a Hewlett-Packard 5970-A mass selective detector operating in selective ion monitoring mode was used. Results were expressed as μmol/L for each individual bile acid.

[3] = i.v. bolus TCDC in rats, data not shown
[4] = i.v. bolus TCDC in rats, dose-dependent
[5] = 4 h after i.v. TCDC 10 μmol/100 gram, mean ± SEM, n = 5, P < 0.05 versus vehicle
[6] = 4 h after i.v. TCDC 10 μmol/100 gram, mean ± SEM, n = 5, conjugates plus unconjugates

## C[C@H](CCC(=O)NCCS(=O)(=O)O)[C@H]1CC[C@H]2[C@@H]3[C@H](O)C[C@@H]4C[C@H](O)CC[C@]4(C)[C@H]3CC[C@]12C [TCDC, taurochenodeoxycholic acid]
[1]
  Total hepatocyte LDH activity in the lysate: 90-96 units
Hepatic toxicity (liver); TCDC dose 5 i.v., 0 h
  Serum ALT: 52 ± 6 IU/L
  Serum AST: 73 ± 9 IU/L
Hepatic toxicity (liver); TCDC dose 5 i.v., 4 h
  Serum ALT: 92 ± 23 IU/L
  Serum AST: 121 ± 24 IU/L
Hepatic toxicity (liver); TCDC dose 5 i.v., 8 h
  Serum ALT: 88 ± 12 IU/L
  Serum AST: 110 ± 12 IU/L
Hepatic toxicity (liver); TCDC dose 5 i.v., 12 h
  Serum ALT: 70 ± 7 IU/L
  Serum AST: 105 ± 12 IU/L
Hepatic toxicity (liver); TCDC dose 5 i.v., 24 h
  Serum ALT: 72 ± 7 IU/L
  Serum AST: 89 ± 3.5 IU/L
Hepatic toxicity (liver); TCDC dose 10 i.v., 0 h
  Serum ALT: 53 ± 3 IU/L
  Serum AST: 92 ± 8 IU/L
Hepatic toxicity (liver); TCDC dose 10 i.v., 4 h
  Serum ALT: 1855 ± 701 IU/L
  Serum AST: 3679 ± 1105 IU/L
Hepatic toxicity (liver); TCDC dose 10 i.v., 8 h
  Serum ALT: 1963 ± 701 IU/L
  Serum AST: 2233 ± 1906 IU/L
Hepatic toxicity (liver); TCDC dose 10 i.v., 12 h
  Serum ALT: 492 ± 291 IU/L
  Serum AST: 605 ± 249 IU/L
Hepatic toxicity (liver); TCDC dose 10 i.v., 24 h
  Serum ALT: 198 ± 82 IU/L
  Serum AST: 328 ± 82 IU/L
Hepatic toxicity (liver); TCDC dose 20 i.v., 0 h
  Serum ALT: 64 ± 9 IU/L
  Serum AST: 70 ± 6 IU/L
Hepatic toxicity (liver); TCDC dose 20 i.v., 4 h
  Serum ALT: 1712 ± 554 IU/L
  Serum AST: 1456 ± 748 IU/L
Hepatic toxicity (liver); TCDC dose 20 i.v., 8 h
  Serum ALT: 1238 ± 257 IU/L
  Serum AST: 2057 ± 939 IU/L
Hepatic toxicity (liver); TCDC dose 20 i.v., 12 h
  Serum ALT: 851 ± 167 IU/L
  Serum AST: 1282 ± 375 IU/L
Hepatic toxicity (liver); TCDC dose 20 i.v., 24 h
  Serum ALT: 362 ± 75 IU/L
  Serum AST: 399 ± 41 IU/L
Hepatic toxicity (liver); i.v. bolus TCDC in rats
  Time of peak serum AST and ALT after injection: 4 h
Hepatic toxicity (liver); [3]
  Serum alkaline phosphatase, change: no significant changes
  Total serum bilirubin, change: no significant changes
Hepatic toxicity (liver); [4]
  Serum ALT concentration, change: significant rise
  Serum AST concentration, change: significant rise
[2]; 4 h after i.v. TCDC 10 μmol/100 gram
  Serum individual bile acids, change versus vehicle: significant increases in most bile acids
[2]; [5]
  Serum alpha-muricholic acid concentration: 77.4 ± 15.9 µmol/L
  Serum beta-muricholic acid concentration: 12.4 ± 3.3 µmol/L
  Serum cholic acid concentration: 134.8 ± 30.2 µmol/L
  Serum total bile acids concentration: 277.8 ± 49.0 µmol/L
[2]; [6]
  Serum deoxycholic acid concentration: 4.8 ± 1.2 µmol/L
  Serum lithocholic acid concentration: 0.6 ± 0.2 µmol/L
  Serum ursodeoxycholic acid concentration: 4.4 ± 0.4 µmol/L
[2]; in vivo model, TCDC
  CDC concentrations, change: elevated to a similar extent as the other bile acids
  Lithocholate conjugates, change: lack of substantial elevation
